Laboratory results reported in patent publication US20230255966A1, “A COMBINATION OF A CBP/P300 BROMODOMAIN INHIBITOR AND AN EGFR INHIBITOR FOR USE IN TREATING EGFR-MUTANT NSCLC” (TOLREMO THERAPEUTICS AG, priority 2020, published 2023).

Key:
BRD2(1, 2) = target: T1, BRD2(1, 2) (Homo sapiens, UniProt P25440); assay: BROMOscan BromoKdMAX; assay type: binding
T1 construct: T7 phage strains displaying bromodomains were grown in parallel; purchased DiscoverX; host or cells: T7 phage in E. coli host derived from BL21
T1 sequence (P25440 71-455 limits assumed): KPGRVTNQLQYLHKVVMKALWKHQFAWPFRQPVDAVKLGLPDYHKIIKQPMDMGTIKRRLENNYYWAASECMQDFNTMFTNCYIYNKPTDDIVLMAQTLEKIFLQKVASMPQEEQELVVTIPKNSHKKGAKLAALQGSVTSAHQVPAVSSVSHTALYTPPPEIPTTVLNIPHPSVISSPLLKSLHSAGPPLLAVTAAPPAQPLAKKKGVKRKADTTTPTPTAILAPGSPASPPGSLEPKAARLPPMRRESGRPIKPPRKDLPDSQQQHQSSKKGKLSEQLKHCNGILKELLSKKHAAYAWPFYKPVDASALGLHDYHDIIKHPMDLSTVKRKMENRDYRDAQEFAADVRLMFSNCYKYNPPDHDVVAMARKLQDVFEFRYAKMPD
Experimental: (§1) A BromoKdMAX was performed at DiscoverX.
(§2) The assay principle is the following: BROMOscan™ is a novel industry leading platform for identifying small molecule bromodomain inhibitors. Based on proven KINOMEscan™ technology, BRO-MOscan™ employs a proprietary ligand binding site-directed competition assay to quantitatively measure interactions between test compounds and bromodomains.
(§3) The assay was conducted as follows: For the Bromodomain assays, T7 phage strains displaying bromodomains were grown in parallel in 24-well blocks in an E. coli host derived from the BL21 strain. E. coli were grown to log-phase and infected with T7 phage from a frozen stock (multiplicity of infection=0.4) and incubated with shaking at 32° C. until lysis (90-150 minutes). The lysates were centrifuged (5,000×g) and filtered (0.2 μm) to remove cell debris. […] The liganded beads were blocked with excess biotin and washed with blocking buffer (SeaBlock (Pierce), 1% BSA, 0.05% Tween 20, 1 mM DTT) to remove unbound ligand and to reduce non-specific phage binding. […] Test compounds were prepared as 1000× stocks in 100% DMSO. Kds were determined using an 11-point 3-fold compound dilution series with one DMSO control point. […] The compounds were then diluted directly into the assays such that the final concentration of DMSO was 0.09%. All reactions performed in polypropylene 384-well plates. Each was a final volume of 0.02 ml. […] The bromodomain concentration in the eluates was measured by qPCR.

BRD4(2) = target: T2, BRD4(2) (Homo sapiens, UniProt O60885); assay: BROMOscan BromoKdMAX; assay type: binding
T2 construct: T7 phage strains displaying bromodomains were grown in parallel; purchased DiscoverX; host or cells: T7 phage in E. coli host derived from BL21
Experimental: as §1, §2, §3

TRIM24(PHD, Bromo.) = target: T3, TRIM24(PHD, Bromo.) (Homo sapiens, UniProt O15164); assay: BROMOscan BromoKdMAX; assay type: binding
T3 construct: TRIM24(PHD, Bromo.); purchased DiscoverX (BROMOscan / BromoKdMAX service); host or cells: T7 phage in E. coli host derived from BL21
T3 sequence (O15164 824-1006 limits assumed): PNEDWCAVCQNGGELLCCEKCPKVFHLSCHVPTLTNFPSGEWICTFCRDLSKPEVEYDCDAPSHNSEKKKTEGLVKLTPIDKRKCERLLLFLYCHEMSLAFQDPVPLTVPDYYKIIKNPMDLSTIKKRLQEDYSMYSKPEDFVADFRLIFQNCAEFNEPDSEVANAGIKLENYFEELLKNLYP
Experimental: as §1, §2, §3

BRD4(1) = target: T4, BRD4(1) (Homo sapiens, UniProt O60885); assay: BROMOscan BromoKdMAX; assay type: binding
T4 construct: T7 phage strains displaying bromodomains were grown in parallel; purchased DiscoverX; host or cells: T7 phage in E. coli host derived from BL21
Experimental: as §1, §2, §3

BRPF1 = target: T5, BRPF1 (Homo sapiens, UniProt P55201); assay: BROMOscan BromoKdMAX; assay type: binding
T5 construct: T7 phage strains displaying bromodomains were grown in parallel; purchased DiscoverX; host or cells: T7 phage in E. coli host derived from BL21
T5 sequence (P55201 628-732 limits assumed): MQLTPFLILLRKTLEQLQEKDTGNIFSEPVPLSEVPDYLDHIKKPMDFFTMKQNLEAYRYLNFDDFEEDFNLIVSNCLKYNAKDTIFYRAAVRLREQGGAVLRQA
Experimental: as §1, §2, §3

BRD2(1) = target: T6, BRD2(1) (Homo sapiens, UniProt P25440); assay: BROMOscan BromoKdMAX; assay type: binding
T6 construct: T7 phage strains displaying bromodomains were grown in parallel; purchased DiscoverX; host or cells: T7 phage in E. coli host derived from BL21
T6 sequence (P25440 74-180 limits assumed): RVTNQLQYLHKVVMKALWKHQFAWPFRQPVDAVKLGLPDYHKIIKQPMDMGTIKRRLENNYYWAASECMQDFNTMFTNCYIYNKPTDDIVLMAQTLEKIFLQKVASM
Experimental: as §1, §2, §3

BRD9 = target: T7, BRD9 (Homo sapiens, UniProt Q9H8M2); assay: BROMOscan BromoKdMAX; assay type: binding
T7 construct: T7 phage strains displaying bromodomains were grown in parallel; purchased DiscoverX; host or cells: T7 phage in E. coli host derived from BL21
T7 sequence (Q9H8M2 136-240 limits assumed): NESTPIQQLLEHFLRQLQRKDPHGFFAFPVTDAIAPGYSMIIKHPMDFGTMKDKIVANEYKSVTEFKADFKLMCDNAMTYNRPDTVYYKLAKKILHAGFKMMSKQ
Experimental: as §1, §2, §3

TAF1(2) = target: T8, TAF1(2) (Homo sapiens, UniProt P21675); assay: BROMOscan BromoKdMAX; assay type: binding
T8 construct: T7 phage strains displaying bromodomains were grown in parallel; purchased DiscoverX (BROMOscan / BromoKdMAX service); host or cells: T7 phage in E. coli host derived from BL21
T8 sequence (P21675 1519-1628 limits assumed): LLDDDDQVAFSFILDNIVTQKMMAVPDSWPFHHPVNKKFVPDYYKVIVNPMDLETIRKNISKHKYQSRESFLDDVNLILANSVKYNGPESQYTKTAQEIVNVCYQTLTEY
Experimental: as §1, §2, §3

BRD7 = target: T9, BRD7 (Homo sapiens, UniProt Q9NPI1); assay: BROMOscan BromoKdMAX; assay type: binding
T9 construct: T7 phage strains displaying bromodomains were grown in parallel; purchased DiscoverX; host or cells: T7 phage in E. coli host derived from BL21
T9 sequence (Q9NPI1 131-235 limits assumed): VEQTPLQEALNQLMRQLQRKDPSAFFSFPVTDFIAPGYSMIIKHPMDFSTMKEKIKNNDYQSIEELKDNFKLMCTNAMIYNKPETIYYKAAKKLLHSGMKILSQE
Experimental: as §1, §2, §3

WDR9(2) = target: T10, WDR9(2) (Homo sapiens, UniProt Q9NSI6); assay: BROMOscan BromoKdMAX; assay type: binding
T10 construct: T7 phage strains displaying bromodomains were grown in parallel; purchased DiscoverX (BROMOscan / BromoKdMAX service); host or cells: T7 phage in E. coli host derived from BL21
T10 sequence (Q9NSI6 1313-1418 limits assumed): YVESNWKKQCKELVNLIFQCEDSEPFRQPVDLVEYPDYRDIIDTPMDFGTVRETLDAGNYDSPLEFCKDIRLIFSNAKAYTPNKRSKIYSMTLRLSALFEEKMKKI
Experimental: as §1, §2, §3

BRD4(1, 2) = target: T11, BRD4(1, 2) (Homo sapiens, UniProt O60885); assay: BROMOscan BromoKdMAX; assay type: binding
T11 construct: T7 phage strains displaying bromodomains were grown in parallel; purchased DiscoverX; host or cells: T7 phage in E. coli host derived from BL21
Experimental: as §1, §2, §3

BRD8(2) = target: T12, BRD8(2) (Homo sapiens, UniProt Q9H0E9); assay: BROMOscan BromoKdMAX; assay type: binding
T12 construct: T7 phage strains displaying bromodomains were grown in parallel; purchased DiscoverX; host or cells: T7 phage in E. coli host derived from BL21
T12 sequence (Q9H0E9 1099-1207 limits assumed): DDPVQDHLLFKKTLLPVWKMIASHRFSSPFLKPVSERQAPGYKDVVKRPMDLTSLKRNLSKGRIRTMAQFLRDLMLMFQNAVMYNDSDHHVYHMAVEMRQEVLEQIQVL
Experimental: as §1, §2, §3

CECR2 = target: T13, CECR2 (Homo sapiens, UniProt Q9BXF3); assay: BROMOscan BromoKdMAX; assay type: binding
T13 construct: T7 phage strains displaying bromodomains were grown in parallel; purchased DiscoverX; host or cells: T7 phage in E. coli host derived from BL21
T13 sequence (Q9BXF3 434-538 limits assumed): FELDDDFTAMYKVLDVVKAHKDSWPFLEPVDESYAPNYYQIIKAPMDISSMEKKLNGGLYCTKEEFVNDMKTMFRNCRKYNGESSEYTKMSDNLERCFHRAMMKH
Experimental: as §1, §2, §3

BRDT(2) = target: T14, BRDT(2) (Homo sapiens, UniProt Q58F21); assay: BROMOscan BromoKdMAX; assay type: binding
T14 construct: T7 phage strains displaying bromodomains were grown in parallel; purchased DiscoverX; host or cells: T7 phage in E. coli host derived from BL21
Experimental: as §1, §2, §3

TAF1L(2) = target: T15, TAF1L(2) (Homo sapiens, UniProt Q8IZX4); assay: BROMOscan BromoKdMAX; assay type: binding
T15 construct: T7 phage strains displaying bromodomains were grown in parallel; purchased DiscoverX (BROMOscan / BromoKdMAX service); host or cells: T7 phage in E. coli host derived from BL21
T15 sequence (Q8IZX4 1517-1626 limits assumed): as the sequence (P21675 1519-1628 limits assumed) above, with V46M, M51V, V102I, L107I counted along it
Experimental: as §1, §2, §3

PCAF = target: T16, PCAF (Homo sapiens, UniProt Q92831); assay: BROMOscan BromoKdMAX; assay type: binding
T16 construct: T7 phage strains displaying bromodomains were grown in parallel; purchased DiscoverX (BROMOscan / BromoKdMAX service); host or cells: T7 phage in E. coli host derived from BL21
T16 sequence (Q92831 723-827 limits assumed): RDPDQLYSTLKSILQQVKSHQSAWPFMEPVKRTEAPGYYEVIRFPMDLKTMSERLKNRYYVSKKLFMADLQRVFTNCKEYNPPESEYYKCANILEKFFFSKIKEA
Experimental: as §1, §2, §3

[1] = target: T17, BRD4(full-length, short-iso.) (Homo sapiens, UniProt O60885); assay: BROMOscan BromoKdMAX; assay type: binding
T17 construct: BRD4 (full-length, short-iso.); purchased DiscoverX; host or cells: T7 phage in E. coli host derived from BL21 (general protocol)
Experimental: as §1, §2, §3

BRD8(1) = target: T18, BRD8(1) (Homo sapiens, UniProt Q9H0E9); assay: BROMOscan BromoKdMAX; assay type: binding
T18 construct: T7 phage strains displaying bromodomains were grown in parallel; purchased DiscoverX; host or cells: T7 phage in E. coli host derived from BL21
T18 sequence (Q9H0E9 706-811 limits assumed): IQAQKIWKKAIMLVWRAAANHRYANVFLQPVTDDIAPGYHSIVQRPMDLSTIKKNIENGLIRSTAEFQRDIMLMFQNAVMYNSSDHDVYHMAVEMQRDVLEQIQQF
Experimental: as §1, §2, §3

BRDT(1) = target: T19, BRDT(1) (Homo sapiens, UniProt Q58F21); assay: BROMOscan BromoKdMAX; assay type: binding
T19 construct: T7 phage strains displaying bromodomains were grown in parallel; purchased DiscoverX; host or cells: T7 phage in E. coli host derived from BL21
Experimental: as §1, §2, §3

NCI-H1975 cells = assay: Label-free determination of cell proliferation (CELIGO); assay type: cell-based
NCI-H1975 xenografts = assay: NCI-H1975 xenograft tumor growth; assay type: in vivo, NMRI-Nude mice
Experimental: Tumor volume was measured using a manual caliper two to three times a week. The tumor volume was calculated using the formula: lager tumor diameter x square of the smaller tumor diameter divided by 2. Based on a linear fit of the mean tumor volumes the slopes of the curves were compared by regression analysis (two-tailed).
(§4) The response was determined by comparing tumor volume change at time t to its baseline: % tumor volume change=ΔVolt=100%×((Vt−Vinitial)/Vinitial). The Best Response was the minimum value of ΔVolt for t≥10 d. For each time t, the average of ΔVolt from t=0 to t was also calculated. The BestAvgResponse is defined as the minimum value of this average for t≥10 d. This metric captures a combination of speed, strength and durability of response into a single value. […] Mice that were sacrificed because of an adverse event before they had completed 14 d on trial were removed from the data set.
as §4, with “ΔVolt for t≥6 d. For” for “ΔVolt for t≥10 d. For”

Compound: CO[C@H]1CC[C@H](n2c([C@@H]3CCCC(=O)N3c3ccc(F)c(F)c3)nc3cc(-c4c(C)noc4C)ccc32)CC1 [CCS1477]
- Kd (BRD2(1, 2)): 0.61 µM
- Kd (BRD4(2)): 5.2 µM
- Kd (TRIM24(PHD, Bromo.)): 1.9 µM
- Kd (BRD4(1)): 0.25 µM
- Kd (BRPF1): 1.4 µM
- Kd (BRD2(1)): 0.23 µM
- Kd (BRD9): 0.79 µM
- Kd (TAF1(2)): 7.9 µM
- Kd (BRD7): 5.1 µM
- Kd (WDR9(2)): > 10 µM
- Kd (BRD4(1, 2)): 6.9 µM
- Kd (BRD8(2)): > 10 µM
- Kd (CECR2): > 10 µM
- Kd (BRDT(2)): 8.9 µM
- Kd (TAF1L(2)): > 10 µM
- Kd (PCAF): > 10 µM
- Kd [1]: 0.44 µM
- Kd (BRD8(1)): > 10 µM
- Kd (BRDT(1)): 0.39 µM
- Growth long-term (NCI-H1975 cells; NCI-H1975, 50 nM osimertinib with 2.0, 0.5 or 0.125 μM co-treatment (FIG. 5)): delayed
- Effect on cell numbers on their own (NCI-H1975 cells; NCI-H1975, 2 μM single agent (FIG. 5)): no/weak effect on cell numbers
- Response rate to therapy (best average response) (NCI-H1975 xenografts; 2 mg/kg osimertinib in combination with 20 mg/kg CCS1477): increased response rate
- Tumor growth (slopes of mean tumor volume curves) versus osimertinib group (NCI-H1975 xenografts; 2 mg/kg osimertinib in combination with 20 mg/kg CCS1477, daily, orally): significant difference
- Response to therapy (best average response) (NCI-H1975 xenografts; 20 mg/kg CCS1477 alone): absence of response
- Tumor growth (slopes of mean tumor volume curves) versus vehicle (NCI-H1975 xenografts; 20 mg/kg CCS1477 single agent, daily, orally): No significant difference
